# Values of other authors, collected in patent US8481060B2, “Melt-coated pharmaceutical composition with fast release” (Losan Pharma GmbH, priority 2008, dated 2013).
# Conditions: taste-masking compound (excipient)
row,Structure (SMILES),HLB
1,CCCCCCCCCCCCCCCCCCCC(=O)O [arachinic acid],−7
2,CCCCCCCCCCCCCCCCCCCCCC(=O)O [behenic acid],−8
3,CCCCCCCCCCCCCCCCC(=O)O [margaric acid],−6
4,CCCCCCCCCCCCCCCCCCC(=O)O [nonadecane acid],−6
5,CCCCCCCCCCCCCCCC(=O)O [palmitinic acid],−5
6,CCCCCCCCCCCCCCCCCC(=O)O [stearic acid],−6
